Test results published in ChEMBL document CHEMBL5291721, “A preclinical secondary pharmacology resource illuminates target-adverse drug reaction associations of marketed drugs” (Nat Commun, 2023).

What was measured:
Histamine H2 receptor = Histamine H2 receptor (Homo sapiens, UniProt P25021)
D(4) dopamine receptor = target: T1, D(4) dopamine receptor (Homo sapiens, UniProt P21917)
T1 sequence (P21917 whole entry): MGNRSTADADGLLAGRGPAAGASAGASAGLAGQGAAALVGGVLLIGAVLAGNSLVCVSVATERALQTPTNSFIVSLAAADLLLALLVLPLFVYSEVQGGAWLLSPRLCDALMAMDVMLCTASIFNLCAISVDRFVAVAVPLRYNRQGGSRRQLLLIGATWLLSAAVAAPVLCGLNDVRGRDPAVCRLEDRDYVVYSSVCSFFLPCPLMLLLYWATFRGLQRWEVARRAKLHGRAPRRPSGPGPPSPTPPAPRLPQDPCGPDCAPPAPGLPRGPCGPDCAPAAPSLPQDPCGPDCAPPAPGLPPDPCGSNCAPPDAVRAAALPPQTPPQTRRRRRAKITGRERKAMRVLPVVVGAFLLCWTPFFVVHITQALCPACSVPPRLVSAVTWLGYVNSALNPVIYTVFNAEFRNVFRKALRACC

Histamine H1 receptor [1] = target: T2, Histamine H1 receptor (Homo sapiens, UniProt P35367); assay type: functional, cell-based
T2 sequence (P35367 whole entry): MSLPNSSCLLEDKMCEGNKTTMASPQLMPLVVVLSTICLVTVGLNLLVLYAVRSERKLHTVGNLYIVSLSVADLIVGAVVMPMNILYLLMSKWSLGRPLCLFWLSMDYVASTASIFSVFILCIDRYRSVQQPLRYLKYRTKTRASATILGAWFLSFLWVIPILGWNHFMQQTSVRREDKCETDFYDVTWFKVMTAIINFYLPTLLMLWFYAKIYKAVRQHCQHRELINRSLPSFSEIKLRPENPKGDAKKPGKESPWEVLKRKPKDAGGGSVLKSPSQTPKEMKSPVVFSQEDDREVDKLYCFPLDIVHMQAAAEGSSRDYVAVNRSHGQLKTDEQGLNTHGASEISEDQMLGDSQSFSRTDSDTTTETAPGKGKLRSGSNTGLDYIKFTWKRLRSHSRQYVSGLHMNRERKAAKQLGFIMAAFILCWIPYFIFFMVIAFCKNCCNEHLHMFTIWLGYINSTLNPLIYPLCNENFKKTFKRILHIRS

Glucagon receptor = Glucagon receptor (Homo sapiens, UniProt P47871)
Chain of Glucagon receptor (P47871 whole entry): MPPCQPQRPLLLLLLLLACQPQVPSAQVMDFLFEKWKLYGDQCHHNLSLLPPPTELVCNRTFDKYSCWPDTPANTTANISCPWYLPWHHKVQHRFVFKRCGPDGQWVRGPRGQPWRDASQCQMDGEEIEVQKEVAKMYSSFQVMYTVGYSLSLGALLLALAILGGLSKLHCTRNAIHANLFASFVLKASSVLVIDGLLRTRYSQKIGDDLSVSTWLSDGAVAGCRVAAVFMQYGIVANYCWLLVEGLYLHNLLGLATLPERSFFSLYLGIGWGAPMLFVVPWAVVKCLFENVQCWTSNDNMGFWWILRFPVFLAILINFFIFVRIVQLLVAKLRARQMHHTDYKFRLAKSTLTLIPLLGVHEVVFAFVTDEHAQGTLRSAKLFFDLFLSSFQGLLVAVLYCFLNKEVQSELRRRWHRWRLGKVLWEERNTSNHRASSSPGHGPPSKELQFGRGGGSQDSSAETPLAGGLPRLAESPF

[2] = target: T3, Alpha-2A adrenergic receptor (Homo sapiens, UniProt P08913)
T3 sequence (P08913 whole entry): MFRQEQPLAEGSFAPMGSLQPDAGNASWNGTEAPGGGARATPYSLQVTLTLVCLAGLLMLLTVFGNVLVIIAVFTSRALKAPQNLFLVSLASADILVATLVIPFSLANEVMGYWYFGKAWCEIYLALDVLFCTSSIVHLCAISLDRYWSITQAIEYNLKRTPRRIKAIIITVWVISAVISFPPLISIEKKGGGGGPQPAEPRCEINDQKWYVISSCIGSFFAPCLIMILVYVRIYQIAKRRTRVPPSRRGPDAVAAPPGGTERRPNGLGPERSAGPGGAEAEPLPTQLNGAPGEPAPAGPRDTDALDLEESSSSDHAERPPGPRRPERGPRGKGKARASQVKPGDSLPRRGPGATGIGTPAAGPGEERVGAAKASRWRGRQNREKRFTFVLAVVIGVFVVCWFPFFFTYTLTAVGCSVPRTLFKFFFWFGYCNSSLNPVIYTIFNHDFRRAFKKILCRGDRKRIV

Histamine H1 receptor [3] = target: T2, Histamine H1 receptor; assay type: functional, cell-based; remark: listed apart in the source
Progesterone receptor = target: T4, Progesterone receptor (Homo sapiens, UniProt P06401)
T4 sequence (P06401 whole entry): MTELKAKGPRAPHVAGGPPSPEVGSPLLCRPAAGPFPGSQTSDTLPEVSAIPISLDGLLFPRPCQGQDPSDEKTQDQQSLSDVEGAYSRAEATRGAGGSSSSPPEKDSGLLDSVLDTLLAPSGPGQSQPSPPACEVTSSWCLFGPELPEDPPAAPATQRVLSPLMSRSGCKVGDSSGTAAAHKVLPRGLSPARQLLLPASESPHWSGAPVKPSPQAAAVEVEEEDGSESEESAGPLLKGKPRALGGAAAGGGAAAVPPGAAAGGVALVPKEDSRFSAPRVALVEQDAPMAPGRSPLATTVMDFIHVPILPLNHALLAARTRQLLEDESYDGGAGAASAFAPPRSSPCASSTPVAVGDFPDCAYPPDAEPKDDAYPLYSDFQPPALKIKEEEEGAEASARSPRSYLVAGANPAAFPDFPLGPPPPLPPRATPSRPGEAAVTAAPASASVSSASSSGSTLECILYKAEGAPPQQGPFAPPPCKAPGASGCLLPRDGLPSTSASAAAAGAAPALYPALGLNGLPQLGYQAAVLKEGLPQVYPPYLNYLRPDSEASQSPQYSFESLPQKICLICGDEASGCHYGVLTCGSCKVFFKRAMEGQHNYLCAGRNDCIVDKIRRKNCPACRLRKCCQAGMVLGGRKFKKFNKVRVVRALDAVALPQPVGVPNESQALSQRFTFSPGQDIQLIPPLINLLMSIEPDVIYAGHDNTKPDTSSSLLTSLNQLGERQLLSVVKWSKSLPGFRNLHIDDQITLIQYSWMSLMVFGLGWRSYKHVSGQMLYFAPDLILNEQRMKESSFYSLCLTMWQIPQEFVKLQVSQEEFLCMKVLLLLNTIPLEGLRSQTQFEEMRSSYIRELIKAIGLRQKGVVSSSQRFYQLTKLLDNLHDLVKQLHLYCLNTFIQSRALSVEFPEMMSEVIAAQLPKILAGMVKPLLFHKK
Note: assay procedure not described here.

Chain of Histamine H2 receptor (P25021 whole entry): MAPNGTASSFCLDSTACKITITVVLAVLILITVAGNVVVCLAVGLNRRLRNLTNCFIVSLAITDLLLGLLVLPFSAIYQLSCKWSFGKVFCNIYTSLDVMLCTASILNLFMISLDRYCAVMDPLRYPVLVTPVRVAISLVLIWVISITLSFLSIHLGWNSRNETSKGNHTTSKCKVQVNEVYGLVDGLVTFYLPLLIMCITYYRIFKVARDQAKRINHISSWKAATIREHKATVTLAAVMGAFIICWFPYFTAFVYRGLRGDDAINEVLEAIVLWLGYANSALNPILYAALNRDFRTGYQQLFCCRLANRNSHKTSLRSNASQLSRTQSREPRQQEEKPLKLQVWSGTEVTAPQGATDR

AC50 (Histamine H2 receptor): 3.13 µM
AC50 (D(4) dopamine receptor): 4.11 µM
AC50 (Histamine H1 receptor [1]): > 30 µM
AC50 (Glucagon receptor): > 30 µM
AC50 [2]: > 10 µM
AC50 (Histamine H1 receptor [3]): > 30 µM
AC50 (Progesterone receptor): > 30 µM
Compound: CCCCOc1ccc(C(=O)CCN2CCCCC2)cc1 [DYCLONINE]
